Experimental data taken from article PMC5515279 (2014).

Columns and labels:
[1] = system: TA[Q] (DNA, G4) TAGGGTTAGGGTTAGGGTTAGGG; test: fluorescence titration; conditions: K+ 0.1 M; 25 mM Tris-HCl pH 7.5, 1 mM EDTA, 18 °C; 0.5 μM compound
[2] = system: rUA[Q] (RNA, G4) UAGGGUUAGGGUUAGGGUUAGGG; test: fluorescence titration; conditions: K+ 0.1 M; 25 mM Tris-HCl pH 7.5, 1 mM EDTA, 18 °C (general conditions)

Compound	K11 [1]	Kd [1] [nM]	binding constant [2]
COc1cc2c(cc1OC)-c1cc3ccc(OC)c(OC)c3c[n+]1CC2	(4.1 ± 0.4) × 10^5 M^-1		
COc1cc2c(cc1OC)-c1cc3ccc4c(c3c[n+]1CC2)OCO4		37 ± 8	(1.2 ± 0.2) × 10^6 M^-1

The remaining lines, values ahead:

K11 [1]	Kd [1] [nM]	binding constant [2]	Compound
(4.1 ± 0.4) × 10^5 M^-1			COc1ccc2cc3[n+](cc2c1OC)CCc1cc2c(cc1-3)OCO2
(5.1 ± 0.4) × 10^5 M^-1			Cc1c2[n+](cc3c4c(ccc13)OCO4)CCc1cc3c(cc1-2)OCO3
(1.4 ± 0.5) × 10^6 M^-1			c1c2c(cc3c1OCO3)-c1cc3ccc4c(c3c[n+]1CC2)OCO4
